Results reported in ChEMBL document CHEMBL5352441, “Modulation of FLT3-ITD and CDK9 in acute myeloid leukaemia cells by novel proteolysis targeting chimera (PROTAC)” (2022).
Active and inactive are the calls of the source. The calls are words filed in the database; no cut-off is given here.

Assays:
MV4-11 [1] = assay: Induction of cell cycle arrest in CRBN-deficient human MV4-11 cells assessed as accumulation of cells at G2/M phase at 0.02 uM incubated for 16 hrs by PI staining based flow cytometry analysis (reference value: 9.34%); type: functional
MV4-11 [2] = assay: Downregulation of FLT3 gene expression in human MV4-11 cells at 0.004 to 2.5 uM incubated for 4 hrs by qRT-PCR analysis; type: functional, cell-based; settings: dose 0.004-2.5 µM
[3] = target: T1, Protein cereblon/Receptor-type tyrosine-protein kinase FLT3 (Homo sapiens) (UniProt P36888+Q96SW2); assay: PROTAC activity at CRBN/FLT3 in human MV4-11 cells at 0.1 to 0.5 uM preincubated for 90 mins with 4-hydroxythalidomide followed by compound addition and further incubated for 16 hrs by immunoblot analysis; type: cell-based; settings: dose 0.1-0.5 µM
[4] = target: T1, Protein cereblon/Receptor-type tyrosine-protein kinase FLT3 (Homo sapiens); assay: PROTAC activity at CRBN/FLT3 in human MV4-11 cells harboring FLT3-ITD mutation assessed as induction of protein degradation at low nanomolar concentrations incubated for 16 hrs by immunoblot analysis; type: cell-based
MV4-11 [5] = assay: Induction of cell cycle arrest in CRBN-deficient human MV4-11 cells assessed as accumulation of cells at sub-G1 phase at 0.5 uM incubated for 16 hrs by PI staining based flow cytometry analysis (reference value: 12.52%); type: functional
MV4-11 [6] = assay: Induction of cell cycle arrest in CRBN-deficient human MV4-11 cells assessed as accumulation of cells at G2/M phase at 2.5 uM incubated for 16 hrs by PI staining based flow cytometry analysis (reference value: 9.34%); type: functional
MV4-11 [7] = assay: Induction of apoptosis in human MV4-11 cells assessed as activation of caspase 3 at 0.1 to 0.5 uM preincubated for 90 mins with 4-hydroxythalidomide followed by compound addition and further incubated for 16 hrs in presence of Ac-DEVD-AMC by fluorescence microplate reader analysis; type: functional, cell-based; settings: dose 0.1-0.5 µM
MV4-11 [8] = assay: Induction of cell cycle arrest in human MV4-11 cells assessed as accumulation of cells at S phase at 0.004 uM incubated for 16 hrs by PI staining based flow cytometry analysis (reference value: 26.16%); type: functional
[9] = target: Protein cereblon/Cyclin-dependent kinase 9 (Homo sapiens) (UniProt P50750+Q96SW2); assay: PROTAC activity at CRBN/CDK9 in CRBN-deficient human MV4-11 cells assessed as induction of protein degradation at 0.004 to 2.5 uM incubated for 16 hrs by immunoblot analysis; type: cell-based; settings: dose 0.004-2.5 µM
MV4-11 [10] = assay: Downregulation of HOXA9 gene expression in human MV4-11 cells incubated for 4 hrs by qRT-PCR analysis; type: functional, cell-based; settings: dose 0.004-2.5 µM
K562 = assay: Antiproliferative activity against human K562 cells assessed as cell growth inhibition incubated for 72 hrs by resazurin dye based fluorescence analysis; type: functional
MV4-11 [11] = assay: Induction of cell cycle arrest in human MV4-11 cells assessed as accumulation of cells at G2/M phase at 0.02 uM incubated for 16 hrs by PI staining based flow cytometry analysis (reference value: 10.86%); type: functional
MV4-11 [12] = assay: Antiproliferative activity against CRBN-deficient human MV4-11 cells assessed as cell growth inhibition incubated for 72 hrs by resazurin dye based fluorescence analysis; type: functional
[13] = tested on: Receptor-type tyrosine-protein kinase FLT3 (Homo sapiens), P36888 [UNDEFINED MUTATION]; assay: Inhibition of FLT3 autophosphorylation at Y589/591 residue in human MV4-11 cells harboring FLT3-ITD mutation at 0.004 to 2.5 uM incubated for 16 hrs by immunoblot analysis; type: cell-based; settings: dose 0.004-2.5 µM
MV4-11 [14] = assay: Induction of cell cycle arrest in human MV4-11 cells assessed as accumulation of cells at G2/M phase at 0.1 uM incubated for 16 hrs by PI staining based flow cytometry analysis (reference value: 10.86%); type: functional
MV4-11 [15] = assay: Induction of cell cycle arrest in CRBN-deficient human MV4-11 cells assessed as accumulation of cells at G1 phase at 0.004 uM incubated for 16 hrs by PI staining based flow cytometry analysis (reference value: 54.05%); type: functional
[16] = tested on: Receptor-type tyrosine-protein kinase FLT3 (Homo sapiens), P36888 [UNDEFINED MUTATION]; assay: Inhibition of FLT3 in human MV4-11 cells harboring FLT3-ITD mutation assessed as reduction in ERK1/2 phosphorylation at T202/Y204 residue at 0.004 to 2.5 uM incubated for 16 hrs by immunoblot analysis; type: cell-based; settings: dose 0.004-2.5 µM
MV4-11 [17] = assay: Induction of apoptosis in human MV4-11 cells assessed as activation of caspase 3 incubated for 16 hrs in presence of Ac-DEVD-AMC by fluorescence microplate reader analysis; type: functional, cell-based; settings: dose 0.004-2.5 µM
MV4-11 [18] = assay: Induction of cell cycle arrest in CRBN-deficient human MV4-11 cells assessed as accumulation of cells at sub-G1 phase at 0.02 uM incubated for 16 hrs by PI staining based flow cytometry analysis (reference value: 12.52%); type: functional
RS4-11 = assay: Antiproliferative activity against human RS4-11 cells assessed as cell growth inhibition incubated for 72 hrs by resazurin dye based fluorescence analysis; type: functional
MV4-11 [19] = assay: Induction of cell cycle arrest in human MV4-11 cells assessed as accumulation of cells at G1 phase at 2.5 uM incubated for 16 hrs by PI staining based flow cytometry analysis (reference value: 62.97%); type: functional
MV4-11 [20] = assay: Induction of cell cycle arrest in human MV4-11 cells assessed as accumulation of cells at subG1 phase at 0.02 uM incubated for 16 hrs by PI staining based flow cytometry analysis (reference value: 10.51%); type: functional
[21] = target: Receptor-type tyrosine-protein kinase FLT3 (Homo sapiens) (UniProt P36888); assay: Stabilization of FLT3 in CRBN-deficient human MV4-11 at 0.004 to 2.5 uM incubated for 16 hrs by immunoblot analysis; type: cell-based; settings: dose 0.004-2.5 µM
HL-60 = assay: Antiproliferative activity against human HL-60 cells assessed as cell growth inhibition incubated for 72 hrs by resazurin dye based fluorescence analysis; type: functional
MV4-11 [22] = assay: Induction of cell cycle arrest in CRBN-deficient human MV4-11 cells assessed as accumulation of cells at sub-G1 phase at 0.1 uM incubated for 16 hrs by PI staining based flow cytometry analysis (reference value: 12.52%); type: functional
U-937 = assay: Antiproliferative activity against human U-937 cells assessed as cell growth inhibition incubated for 72 hrs by resazurin dye based fluorescence analysis; type: functional
MV4-11 [23] = assay: Induction of cell cycle arrest in CRBN-deficient human MV4-11 cells assessed as accumulation of cells at sub-G1 phase at 2.5 uM incubated for 16 hrs by PI staining based flow cytometry analysis (reference value: 12.52%); type: functional
MV4-11 [24] = assay: Induction of cell cycle arrest in human MV4-11 cells assessed as accumulation of cells at G1 phase at 0.004 uM incubated for 16 hrs by PI staining based flow cytometry analysis (reference value: 62.97%); type: functional
MV4-11 [25] = assay: Induction of cell cycle arrest in CRBN-deficient human MV4-11 cells assessed as accumulation of cells at S phase at 2.5 uM incubated for 16 hrs by PI staining based flow cytometry analysis (reference value: 36.91%); type: functional
MV4-11 [26] = assay: Induction of cell cycle arrest in human MV4-11 cells assessed as accumulation of cells at G1 phase at 0.5 uM incubated for 16 hrs by PI staining based flow cytometry analysis (reference value: 62.97%); type: functional
MV4-11 [27] = assay: Induction of apoptosis in human MV4-11 cells assessed as PARP-1 cleavage incubated for 16 hrs in presence of Ac-DEVD-AMC by fluorescence microplate reader analysis; type: functional, cell-based; settings: dose 0.004-2.5 µM

Sequence of Receptor-type tyrosine-protein kinase FLT3 (Homo sapiens), P36888 [UNDEFINED MUTATION] (P36888 whole entry, looked up, change not shown): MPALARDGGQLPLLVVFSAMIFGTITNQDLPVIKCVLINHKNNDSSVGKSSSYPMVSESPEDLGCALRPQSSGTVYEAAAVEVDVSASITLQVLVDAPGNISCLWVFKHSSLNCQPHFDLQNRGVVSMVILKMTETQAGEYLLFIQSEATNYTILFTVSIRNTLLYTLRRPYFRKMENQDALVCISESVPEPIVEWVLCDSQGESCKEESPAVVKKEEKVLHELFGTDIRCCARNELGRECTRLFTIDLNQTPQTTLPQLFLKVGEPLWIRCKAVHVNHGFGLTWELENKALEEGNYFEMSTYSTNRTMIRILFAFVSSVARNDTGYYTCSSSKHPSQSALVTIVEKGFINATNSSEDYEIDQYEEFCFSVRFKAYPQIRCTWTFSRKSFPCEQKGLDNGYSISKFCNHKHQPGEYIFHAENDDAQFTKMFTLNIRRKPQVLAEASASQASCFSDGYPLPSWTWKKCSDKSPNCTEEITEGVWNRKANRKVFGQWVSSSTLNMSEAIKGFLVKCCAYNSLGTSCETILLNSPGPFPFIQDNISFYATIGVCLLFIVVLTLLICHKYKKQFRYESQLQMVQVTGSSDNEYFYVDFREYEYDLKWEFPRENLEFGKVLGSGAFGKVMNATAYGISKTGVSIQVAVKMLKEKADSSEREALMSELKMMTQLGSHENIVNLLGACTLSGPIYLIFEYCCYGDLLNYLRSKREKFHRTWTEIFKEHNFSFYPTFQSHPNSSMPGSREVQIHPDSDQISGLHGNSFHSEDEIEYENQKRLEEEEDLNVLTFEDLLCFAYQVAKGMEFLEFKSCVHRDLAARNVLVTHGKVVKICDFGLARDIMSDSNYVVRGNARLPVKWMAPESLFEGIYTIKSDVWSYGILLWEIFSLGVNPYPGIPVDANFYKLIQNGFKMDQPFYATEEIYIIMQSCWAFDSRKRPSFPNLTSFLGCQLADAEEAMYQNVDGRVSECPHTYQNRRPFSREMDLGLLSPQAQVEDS
T1 sequence (P36888 27-993 limits assumed): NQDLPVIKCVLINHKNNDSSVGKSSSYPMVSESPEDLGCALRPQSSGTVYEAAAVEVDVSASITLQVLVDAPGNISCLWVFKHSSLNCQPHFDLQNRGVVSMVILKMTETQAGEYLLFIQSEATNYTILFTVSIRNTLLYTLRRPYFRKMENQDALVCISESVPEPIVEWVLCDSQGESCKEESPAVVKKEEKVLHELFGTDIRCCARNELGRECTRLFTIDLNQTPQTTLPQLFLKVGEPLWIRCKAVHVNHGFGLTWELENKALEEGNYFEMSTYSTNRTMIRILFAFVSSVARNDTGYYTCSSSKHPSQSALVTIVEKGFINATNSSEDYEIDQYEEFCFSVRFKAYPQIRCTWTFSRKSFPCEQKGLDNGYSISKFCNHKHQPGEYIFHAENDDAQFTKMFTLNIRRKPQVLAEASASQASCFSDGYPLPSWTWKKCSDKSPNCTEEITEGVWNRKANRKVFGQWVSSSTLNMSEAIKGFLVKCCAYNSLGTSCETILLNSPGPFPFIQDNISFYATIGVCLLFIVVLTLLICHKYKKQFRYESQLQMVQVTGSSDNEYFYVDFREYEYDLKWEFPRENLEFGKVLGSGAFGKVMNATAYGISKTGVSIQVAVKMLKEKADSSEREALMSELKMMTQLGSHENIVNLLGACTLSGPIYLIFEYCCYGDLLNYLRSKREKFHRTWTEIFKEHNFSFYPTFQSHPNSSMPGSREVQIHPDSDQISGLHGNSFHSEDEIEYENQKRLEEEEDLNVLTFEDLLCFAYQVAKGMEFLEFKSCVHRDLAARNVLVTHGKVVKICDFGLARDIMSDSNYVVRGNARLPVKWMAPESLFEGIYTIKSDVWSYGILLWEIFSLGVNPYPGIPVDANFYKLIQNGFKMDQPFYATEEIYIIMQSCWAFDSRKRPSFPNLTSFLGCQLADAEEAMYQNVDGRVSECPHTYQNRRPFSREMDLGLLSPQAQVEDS
T1 sequence (Q96SW2 whole entry partner): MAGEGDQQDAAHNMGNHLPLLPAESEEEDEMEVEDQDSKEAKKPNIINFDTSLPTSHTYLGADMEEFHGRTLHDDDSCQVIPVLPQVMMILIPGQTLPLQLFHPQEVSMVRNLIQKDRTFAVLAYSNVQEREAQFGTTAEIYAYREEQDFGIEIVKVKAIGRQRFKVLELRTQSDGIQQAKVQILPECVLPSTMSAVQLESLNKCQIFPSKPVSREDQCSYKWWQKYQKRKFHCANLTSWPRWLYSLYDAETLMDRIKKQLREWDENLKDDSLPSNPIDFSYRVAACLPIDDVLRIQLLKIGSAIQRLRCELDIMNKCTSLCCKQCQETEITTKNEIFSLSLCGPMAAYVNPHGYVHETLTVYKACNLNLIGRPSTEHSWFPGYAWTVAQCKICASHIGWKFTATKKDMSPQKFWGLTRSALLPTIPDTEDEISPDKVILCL
Sequence of Receptor-type tyrosine-protein kinase FLT3 (Homo sapiens) (P36888 whole entry): as the sequence (P36888 whole entry, looked up, change not shown) above
Sequence of Protein cereblon/Cyclin-dependent kinase 9 (Homo sapiens) (P50750 whole entry, looked up): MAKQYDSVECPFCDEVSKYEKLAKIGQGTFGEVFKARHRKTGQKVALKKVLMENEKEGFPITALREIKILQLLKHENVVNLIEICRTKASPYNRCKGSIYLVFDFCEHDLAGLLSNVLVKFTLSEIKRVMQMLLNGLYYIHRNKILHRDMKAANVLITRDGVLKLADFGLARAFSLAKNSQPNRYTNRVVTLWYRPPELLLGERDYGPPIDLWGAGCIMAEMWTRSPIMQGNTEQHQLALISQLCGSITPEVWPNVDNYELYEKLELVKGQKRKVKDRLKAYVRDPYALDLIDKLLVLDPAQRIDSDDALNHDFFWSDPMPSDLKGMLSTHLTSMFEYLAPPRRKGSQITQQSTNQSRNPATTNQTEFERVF
Sequence of Protein cereblon/Cyclin-dependent kinase 9 (Homo sapiens) (Q96SW2 whole entry, looked up): as the sequence (Q96SW2 whole entry partner) above

Compound: NC1CCC(Nc2nc(Nc3ccc(N4CCN(CCOCCOCCNC(=O)CNc5cccc6c5C(=O)N(C5CCC(=O)NC5=O)C6=O)CC4)cc3)c3ncn(C4CCCC4)c3n2)CC1 (stereo unspecified)
- Activity (MV4-11 [1]): 6%
- Activity (MV4-11 [2]): inactive
- Activity [3]: inactive
- Activity [4]: inactive
- Activity (MV4-11 [5]): 21.07%
- Activity (MV4-11 [6]): 4.56%
- Activity (MV4-11 [7]): inactive
- Activity (MV4-11 [8]): 21.5%
- Activity [9]: inactive
- Activity (MV4-11 [10]): Dose-Dependent Effect
- GI50 (K562): > 10 µM
- Activity (MV4-11 [11]): 5.22%
- GI50 (MV4-11 [12]): 0.119 µM
- inhibition [13]: Active
- Activity (MV4-11 [14]): 3.96%
- Activity (MV4-11 [15]): 63.08%
- inhibition [16]: Active
- Activity (MV4-11 [17]): Dose-Dependent Effect
- Activity (MV4-11 [18]): 13.43%
- GI50 (RS4-11): 1.01 µM
- Activity (MV4-11 [19]): 57.33%
- Activity (MV4-11 [20]): 12.82%
- Activity [21]: Active
- GI50 (HL-60): 6.12 µM
- Activity (MV4-11 [22]): 17.71%
- GI50 (U-937): 9.51 µM
- Activity (MV4-11 [23]): 20.31%
- Activity (MV4-11 [24]): 69.48%
- Activity (MV4-11 [25]): 6.05%
- Activity (MV4-11 [26]): 74.6%
- Activity (MV4-11 [27]): Dose-Dependent Effect
